How the values were obtained:
Type in all cases: in vivo, piglets
[1] = tested on: ESBL-producing Enterobacteriaceae; assay: Piglet model: faecal counts of cefotaxime-resistant (ESBL-producing) Enterobacteriaceae after colistin decontamination and E. coli Nissle 1917 repopulation
Method: (§1) The model was used according to the synopsis depicted in FIG. 1.
In summary, piglets were treated sequentially with: • cefdinir (4 mg/kg/d) during 2 days, in order to enhance the carriage of ESBL-producing bacteria, • colistin sulfate (destroy phase):
(§2) Colistin sulfate (Colivet), a non absorbable antibiotic, used in human decontamination, was given once per day orally in this experiment. Two regimens were tested: 7.5 mg/kg/d and 15 mg/kg/d, equivalent to human doses 500 mg/d and 1000 mg/d, respectively. The duration of the treatment was 3 days. The objective of such very high doses, given over a short period of time, was to obtain a rapid eradication of ESBL-producing Enterobacteriaceae without the emergence of strains resistant to colistin. • E. coli Nissle strain 1917 (EcN1917, Mutaflor). The dose was calculated to administrate the highest dose recommended in humans: 2 enteric-coated capsules of 2.5-25×10^9 viable bacteria, given orally, once daily during 6 days.
(§3) Fresh faecal samples were collected from each piglet, diluted ten-fold (w/v) in peptone broth containing 30% glycerol, and faecal suspension aliquots were stored at −80° C. until microbiological analysis.
(§4) Before analysis, frozen aliquots were thawed by standing approximately 1 hr at room temperature and faecal suspensions were serially diluted in saline before plating on appropriate agar plates.
Total Enterobacteriaceae were counted using Drigalski agar (BioRad Laboratories, Marnes-La-Coquette, France) plates.
Cefotaxime- and colistin-resistant Enterobacteriaceae were counted using Drigalski agar supplemented with 1.5 mg/L cefotaxime and 10 mg/L colistin base respectively.
Bacterial counts which were below the detection threshold (2 log CFU/g of faeces) were considered to be equal to the 2 log CFU/g for statistical analysis.

[2] = tested on: colistin-resistant Enterobacteriaceae; assay: Piglet model: faecal counts of colistin-resistant Enterobacteriaceae; conditions: during follow-up (14 days)
Method: as §1, §2, §3, §4
Cefotaxime- and colistin-resistant Enterobacteriaceae were counted using Drigalski agar supplemented with 1.5 mg/L cefotaxime and 10 mg/L colistin base respectively. […]

[3] = Microbiological assay of faecal concentrations of colistin; conditions: 15 mg/kg/d colistin sulfate
Method: Fecal concentrations of colistin were measured by a microbiological assay using agar medium 10 (Difco, Becton-Dickinson, Le Pont-de-Claix) and Bordetella bronchiseptica ATCC4617 as indicator strain. The limit of detection was 1.5 μg of colistin base per g of feces.
as §3

colistin sulfate
efficacy to eradicate ESBL-producing enterobacteria (destroy phase) ([1]; 15 mg/kg/d compared with 7.5 mg/kg/d, orally once per day, 3 days): best efficacy
decolonization of ESBL-producing enterobacteria ([1]; colistin for three days followed by six days of E. coli strain Nissle 1917): rapid and efficacious decolonization
efficacy in the restore phase ([1]; group which had received the high dose of colistin): best efficacy
selection of strains resistant to colistin [2]: no selection of strains resistant to colistin was observed
faecal concentrations relative to the MIC [3]: at least 10 fold
